Test results as given in ChEMBL document CHEMBL1135877, “Neurotrophic activity of honokiol on the cultures of fetal rat cortical neurons” (2002).

Tests used:
Format in all cases: functional
Rattus norvegicus [1] = organism: Rattus norvegicus; assay: Compound was tested at 100 uM concentration for neurotrophic activity on cultures of E 18 SD rat cortical neurons
Rattus norvegicus [2] = organism: Rattus norvegicus; assay: Compound was tested at 0.1 uM concentration for neurotrophic activity on cultures of E 18 SD rat cortical neurons
Rattus norvegicus [3] = organism: Rattus norvegicus; assay: Compound was tested at 0.01 uM concentration for neurotrophic activity on cultures of E 18 SD rat cortical neurons
Rattus norvegicus [4] = organism: Rattus norvegicus; assay: Compound was tested at 10 uM concentration for neurotrophic activity on cultures of E 18 SD rat cortical neurons
Rattus norvegicus [5] = organism: Rattus norvegicus; assay: Compound was tested at 1 uM concentration for neurotrophic activity on cultures of E 18 SD rat cortical neurons

For `C=CCc1ccc(O)c(-c2ccc(O)c(CC=C)c2)c1` [HONOKIOL], the Control (Rattus norvegicus [1]) was 29.7%, the Control (Rattus norvegicus [2]) was 106% and the Control (Rattus norvegicus [3]) was 95.6%. For the same compound, the Control (Rattus norvegicus [4]) was 143% and the Control (Rattus norvegicus [5]) was 113%.
